Results taken from patent US8697151B2, “Use of an extract from the vigna aconitifolia plant in a cosmetic and/or dermopharmaceutical composition” (BASF Beauty Care Solutions France S.A.S., priority 2001, dated 2014).

Tested on: epidermal cell renewal
Assay: Epidermal cell renewal in vivo by the dihydroxyacetone test (DHA test)
Set-up: species or system human
Settings: for Development of luminescence (D15-D9) / Luminescence (AU) at D 15: 12 volunteers; for Luminescence (AU) at D 15: D15, 6 days after removal of the plasters, 3 mg/cm^2 daily; for Development of luminescence (D15-D9) % referring to control area: Wilcoxon T Test not significant
Method: Comparative in vivo tests were conducted to determine the accelerated epidermal cell renewal activity using 5 emulsions containing 0.2% by weight or 0.5% by weight vitamin A palmitate, 3% by weight or 5% by weight VITOPTINE® (extract of Vigna aconitifolia, Lab. Sero., Pulnoy) versus placebo.
Phase A and phase B were heated to 75° C. The aqueous phase was added to the fatty phase with continuous stirring and cooled to 60° C. by continued stirring. The combined phases were then homogenized for 2 mins. with an Ultraturrax. Finally, the active component is added with stirring and the whole is cooled to room temperature.
The study was carried out as a double blind study involving 12 female volunteers aged between 18 and 55 years.
The measurement parameter was the intensity of tanning of the skin after pigmenting with dihydroxyacetone. The decreasing tanning intensity corresponds to an increase in the renewal of the stratum corneum and the rate of the epidermal cell renewal cycle.
Eight areas (two groups of four) on the inside of the lower forearm were selected: • control area untreated and unpigmented by DHA, • area treated with placebo cream, • area treated with cream containing vitamin A palmitate • area treated with cream containing VITOPTINE®.
A standardized and randomized pretreatment with 3 mg/cm^2 of a preparation was carried out daily for 7 days. After the pretreatment, on day 8, DHA in the form of a face and body tanning lotion containing 5% by weight DHA was applied to the control and treated areas by an occlusive standardized process. On day 9, the occlusive plasters were removed. This was followed for another 6 days (days 10 to 15) by the same treatment as on days 1 to 7. The color intensity of the skin was determined immediately after removal of the plasters and 6 days later by colorimetric measurements (Minolta chromameter) via luminescence.
The first calculation (D15-D9) allowed evaluation of the development between day 9 (removal of the occlusive plasters) and day 15 (6 days after removal of the occlusive plasters). This development is representative of the epidermal cell renewal cycle. The greater the value, the higher the epidermal cell renewal.

## CCCCCCCCCCCCCCCC(=O)OC/C=C(C)/C=C/C=C(C)/C=C/C1=C(C)CCCC1(C)C [vitamin A palmitate]
Cream containing 0.2%
  Development of luminescence (D15-D9): 3.53
  Luminescence (AU) at D 15: 62.18 AU
  Development of luminescence (D15-D9) % referring to control area: 32 (ns) %
Cream containing 0.5%
  Development of luminescence (D15-D9): 3.79
  Luminescence (AU) at D 15: 62.44 AU
  Development of luminescence (D15-D9) % referring to control area: 41 (ns) %
